Experimental data taken from PubChem BioAssay (NCI).
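Values below derive from 48-hour exposures of cells grown in 96-well plates, with endpoints linearly interpolated between the two concentrations bracketing the appropriate inhibition level. TGI: concentration producing complete growth inhibition.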

Assays:
Assay in all cases: DTP human tumour cell line panel, 48 h
[1] = system: MALME-3M melanoma
[2] = system: BT-549 breast
[3] = system: U251 CNS
[4] = system: UACC-257 melanoma
[5] = system: SK-MEL-5 melanoma
[6] = system: M14 melanoma
[7] = system: OVCAR-8 ovarian
[8] = system: SW-620 colon
[9] = system: NCI-H23 lung
[10] = system: LOX IMVI melanoma
[11] = system: NCI-H460 lung
[12] = system: HS 578T breast
[13] = system: NCI/ADR-RES ovarian
[14] = system: T-47D breast
[15] = system: SN12C renal
[16] = system: 786-0 renal
[17] = system: K-562 leukemia
[18] = system: HT29 colon
[19] = system: SNB-19 CNS
[20] = system: A549 NSCLC
[21] = system: SF-268 CNS
[22] = system: EKVX NSCLC
[23] = system: MOLT-4 leukemia
[24] = system: HCT-15 colon
[25] = system: RPMI-8226 leukemia
[26] = system: SF-295 CNS
[27] = system: SF-539 CNS
[28] = system: UACC-62 melanoma
[29] = system: COLO 205 colon
[30] = system: DU-145 prostate
[31] = system: HL-60(TB) leukemia
[32] = system: PC-3 prostate
[33] = system: OVCAR-5 ovarian
[34] = system: SR leukemia
[35] = system: HOP-62 NSCLC
[36] = system: ACHN renal
[37] = system: NCI-H226 lung
[38] = system: CAKI-1 renal
[39] = system: TK-10 renal
[40] = system: SNB-75 CNS
[41] = system: KM12 colon
[42] = system: MDA-MB-231 breast
[43] = system: OVCAR-3 ovarian
[44] = system: RXF 393 renal
[45] = system: CCRF-CEM leukemia
[46] = system: OVCAR-4 ovarian
[47] = system: MCF7 breast
[48] = system: MDA-MB-435
[49] = system: HCT-116 colon
[50] = system: HCC-2998 colon
[51] = system: SK-MEL-2 melanoma
[52] = system: IGROV1 ovarian
[53] = system: SK-MEL-28 melanoma
[54] = system: NCI-H522 lung
[55] = system: MDA-N
[56] = system: SK-OV-3 ovarian
[57] = system: UO-31 renal
[58] = system: A498 renal
[59] = system: HOP-92 NSCLC

Measured: TGI

C[C@@H](c1ccccc1)N1CN(C(=O)OCc2ccccc2)C(CO)C1=O (stereo partly drawn)
> 100 µM: [1] | [2] | [3] | [4] | [5] | [6] | [7] | [8] | [9] | [10] | [11] | [12] | [13] | [14] | [15] | [16] | [17] | [18] | [19] | [20] | [21] | [22] | [23] | [24] | [25] | [26] | [27] | [28] | [29] | [30] | [31] | [32] | [33] | [34] | [35] | [36] | [37] | [38] | [39] | [40] | [41] | [42] | [43] | [44] | [45] | [46] | [47] | [48] | [49] | [50] | [51] | [52] | [53] | [54] | [55] | [56]

CCOC(=O)c1nnsc1NC(=O)NCCCCCCn1c(=O)n(CCCCCCNC(=O)Nc2snnc2C(=O)OCC)c(=O)n(CCCCCCNC(=O)Nc2snnc2C(=O)OCC)c1=O
> 100 µM: [57] | [2] | [4] | [5] | [6] | [7] | [8] | [13] | [14] | [15] | [17] | [18] | [58] | [20] | [22] | [23] | [24] | [26] | [29] | [30] | [32] | [33] | [34] | [36] | [38] | [41] | [43] | [45] | [46] | [47] | [48] | [49] | [50] | [51] | [52] | [55] | [56]
53.2 µM: [1]
47.7 µM: [37]
35.1 µM: [28]
90.4 µM: [9]
38.2 µM: [19]
48.4 µM: [21]
41.1 µM: [42]
44.3 µM: [11]
36.8 µM: [3]
50 µM: [12]
69.8 µM: [35]
86.2 µM: [44]
83 µM: [40]
46.4 µM: [25]
30.3 µM: [16]

COc1ccc(NC(=O)CC(=O)NN)cc1
> 100 µM: [57] | [1] | [2] | [3] | [4] | [5] | [7] | [8] | [9] | [59] | [10] | [11] | [12] | [13] | [14] | [15] | [16] | [17] | [18] | [19] | [20] | [21] | [22] | [23] | [24] | [25] | [26] | [27] | [28] | [29] | [30] | [31] | [32] | [33] | [34] | [35] | [36] | [37] | [38] | [39] | [40] | [41] | [42] | [43] | [44] | [45] | [46] | [47] | [48] | [49] | [51] | [52] | [54] | [55] | [56]

NC(=O)c1nnsc1N/N=C/c1ccc([N+](=O)[O-])cc1
88.6 µM: [2]
> 100 µM: [57] | [1] | [3] | [4] | [5] | [6] | [7] | [8] | [9] | [10] | [11] | [12] | [13] | [14] | [15] | [16] | [17] | [18] | [58] | [19] | [20] | [21] | [22] | [23] | [24] | [25] | [26] | [27] | [28] | [29] | [30] | [31] | [32] | [33] | [34] | [35] | [36] | [37] | [38] | [40] | [41] | [42] | [43] | [44] | [45] | [46] | [47] | [48] | [49] | [50] | [51] | [52] | [53] | [54] | [55] | [56]

O=C(O)CCn1cnc2c(=S)nc[nH]c21
> 100 µM: [57] | [1] | [2] | [3] | [4] | [5] | [6] | [7] | [8] | [9] | [10] | [11] | [12] | [13] | [14] | [15] | [16] | [17] | [18] | [58] | [19] | [20] | [21] | [22] | [23] | [24] | [25] | [26] | [27] | [28] | [29] | [30] | [31] | [32] | [33] | [34] | [35] | [36] | [37] | [38] | [39] | [40] | [41] | [42] | [43] | [44] | [45] | [46] | [47] | [48] | [49] | [50] | [51] | [52] | [53] | [54] | [55] | [56]
